# Test results: patent US11034666B2, “Anti-inflammatory and antitumor 2-oxothiazoles and 2-oxothiophenes compounds” (Avexxin AS, priority 2013, dated 2021)
# What was measured:
# MAS98.12 xenograft = conditions: FIG. 1; data from an earlier study in the same animal model [13]; cited from earlier work
# [1] = tested on: collagen-induced arthritis (CIA) mouse model; assay: Prophylactic collagen-induced arthritis (CIA) study; assay type: in vivo, male DBA/1 mice
# Procedure: The prophylactic effect of Compound A on CIA model in male DBA/1 mice^57 following intraperitoneal (ip) administration, treatment starting 1 hour prior to the last immunization was studied. A study comparing naïve mice (healthy, non-CIA, non-treated), vehicle-treated mice (CIA with DMSO, ip) and CIA mice treated daily with Compound A (7.5 mg/kg, ip) or MTX (0.3 mg/kg, ip) was performed. CIA developed rapidly in mice immunized with CII. In the prophylactic study, a 100% incidence of CIA was observed by day 29 in CII-immunized mice, with maximum AI of 8.55 observed at 41 days post immunization. The AI and incidence of all groups increased in a time-dependent mode from day 25 to day 41.
# Separate prophylactic and therapeutic efficacy studies of COMPOUND A were performed. Methotrexate (MTX) (Jiangsu Hengrui Medicine Co, #11041411), Enbrel (Boehringer Ingelheim Pharma KG, # F39487), and vehicle (DMSO 100%, Sigma Aldrich # D2650) were administered to all groups via intraperitoneal injection once daily at a dose volume of 2 mL/kg. Observations for morbidity, mortality, injury, and the availability of food and water were conducted twice daily for all animals. Clinical observations were conducted daily during the study. Body weights were measured and recorded prior to randomization and then once daily during the study. Food consumption was measured and recorded daily. Biopsies for mid-term histology analysis were obtained on Day 13 in the prophylactic study. Necropsy examinations were performed at study termination; plasma samples were collected, organ weights were recorded
# (§1) For the prophylactic and the therapeutic studies, CIA was induced in male DBA/1 mice (except naïve mice) by immunization with 0.1 mL emulsion containing an equal volume of bovine type II collagen solution (2 mg/mL) and Freuds Complete Adjuvant at the tail base. The first injection was given on Day 0 and the second injection as booster was given on Day 21 (41-43). COMPOUND A, vehicle (DMSO) and MTX (0.3 mg/kg) were administered daily, Enbrel (25 mg/kg) was administrated twice a week. For the prophylactic study, treatment started one hour before the second collagen injection and continued for 21 days except for the histology groups that were sacrificed at Day 13 ([…]). For the therapeutic study, treatment started at Day 28 and continued for 14 days.
# CIA Assessment and Treatment. CIA was assessed in mice by two blinded observers to measure paw swelling with a capacity measurement method on Day 0, Day 20, Day 22, Day 25, Day 27, Day 29, Day 32, Day 34, Day 36, Day 39 and Day 41 after the first injection. The occurrence of arthritis was observed by scoring all paws for severity of erythema and swelling, using a clinical score ranging from 0 (no swelling) to 4 (severe swelling and erythema). The physical condition of the animals was observed daily. Scores and overall evaluation of the histology group arms were performed in the same way as the main groups. However, the values measured were not included in the mean value calculations of the main groups. The YLS-7B Foot Volume Measuring Instrument (Huaibei China Bio Equipment) was used to measure the foot volume of mice. The occurrence of arthritis was observed by scoring all paws for severity of erythema and swelling, using a clinical score ranging from 0 (no swelling) to 4 (severe swelling and erythema), i.e. yielding maximum arthritic index (AI) score 16 (46).
# Measurement of the histopathology and clinical observations. At the end of the studies, one hind foot of each mouse was collected for histopathology. The foot including the ankle was fixed in 10% neutral formalin. The ankle joints were decalcified, dehydrated, embedded in paraffin, sectioned and stained with routine hematoxylin-eosin. The sections were studied using light microscopy (10×10 and 20×10 magnifications). Arthritis damage (histological damage score) was evaluated and scored by an investigator blinded for the treatment regimen. […]
# PGE2 [2] = assay: Plasma PGE2 EIA, prophylactic CIA study; assay type: in vivo, male DBA/1 mice; conditions: prophylactic CIA study; Compound A 7.5 mg/kg, MTX 0.3 mg/kg; vehicle 223.4±107; mean ± SD
# Procedure: PGE2 is recognized as an important contributor to the joint inflammation in rheumatoid arthritis,^60 and we investigated if plasma PGE2 levels were changed in response to treatment. […] There were no significant differences between the treatment groups (p>0.05).
# (§2) PGE2 EIA analysis of blood plasma from the prophylactic and therapeutic CIA studies was performed according to kit protocol. Plasma samples were diluted 1:1000-1:6000 in EIA buffer and allowed to hybridize over-night (18 hrs, 4° C.). The plate was read using a Multiscan plate reader (Ascent Labsystems) (OD550 nm). The corresponding Ascent software for Multiscan, Version 2.4.1 was used to obtain the data. PGE2 levels for all treatments are shown relative to the DMSO-treated vehicle arthritic mice (n=10-11 mice in each category±SD).
# as §1
# [3] = tested on: rat streptozocin-induced model of human chronic renal disease; assay: Rat streptozocin-induced model of human chronic renal disease, urine protein; assay type: in vivo, Sprague Dawley rats; conditions: AVX235 10 mg/kg ip; losartan 30 mg/kg oral gavage daily; 2 weeks
# Procedure: The therapeutic effect of AVX235 was tested in the rat streptozocin-induced model of human chronic renal disease and compared against losartan (positive control).
# Sprague Dawley rats (Harlan laboratories, USA) of an average weight of 130-150 grams were divided in groups of 8 animals per group and were treated according to table 7:
# AVX235 was injected intraperitoneally, once daily for the first 4 days and then every two days. Losartan was administered daily, by oral gavage. At 2 weeks post experiment initiation, urine was collected over a period of 24 h and total protein in mg was measured.
# [4] = tested on: collagen-induced arthritis (CIA) mouse model; assay: Therapeutic collagen-induced arthritis (CIA) study; assay type: in vivo, male DBA/1 mice; conditions: Days 36 to 41; Compound A 30 mg/kg ip daily; Enbrel 25 mg/kg twice a week
# Text: The therapeutic effect of Compound A on CIA model in male DBA/1 mice following ip administration, treatment starting 7 days after the last immunization was explored. CIA developed rapidly in mice immunized with CII, with maximum AI of 10.2 observed at 39 days post immunization. The AI and incidence of vehicle- and Compound A treated groups increased in a time-dependent mode from Days 29 to 41. […] Compound A and Enbrel performed equally well; there were no significant difference between these treatments groups.
# Separate prophylactic and therapeutic efficacy studies of COMPOUND A were performed. […] Body weights were measured and recorded prior to randomization and then once daily during the study. Food consumption was measured and recorded daily. […] Necropsy examinations were performed at study termination; plasma samples were collected, organ weights were recorded […]
# CIA Assessment and Treatment. CIA was assessed in mice by two blinded observers to measure paw swelling with a capacity measurement method on Day 0, Day 20, Day 22, Day 25, Day 27, Day 29, Day 32, Day 34, Day 36, Day 39 and Day 41 after the first injection. […] However, the values measured were not included in the mean value calculations of the main groups. […]
# PGE2 [5] = assay: Plasma PGE2 EIA, therapeutic CIA study; assay type: in vivo, male DBA/1 mice; conditions: therapeutic CIA study; Compound A 30 mg/kg, Enbrel 25 mg/kg; vehicle 231.1±110; mean ± SD
# Procedure: There were no significant differences between the treatment groups (p>0.05).
# as §2, §1
# [6] = hind paw, Compound A 7.5 mg/kg, MTX 0.3 mg/kg
compound,measurement,setting,value
Cn1c(=O)n(-c2ccc(C(C)(C)C#N)cc2)c2c3cc(-c4cnc5ccccc5c4)ccc3ncc21 [BEZ235],tumor volume (in words),MAS98.12 xenograft,tumor volumes are reduced
"CN(Cc1cnc2nc(N)nc(N)c2n1)c1ccc(C(=O)N[C@@H](CCC(=O)O)C(=O)O)cc1 [MTX, Methotrexate, reference compound]",arthritic index (AI) in comparison to the CIA control group (in words),"[1]; Days 32 to 41, Compound A 7.5 mg/kg ip daily, MTX 0.3 mg/kg ip daily",significantly reduced
same,"articular cavity and peripheral tissue inflammatory cell infiltration, histopathology vs vehicle (in words)",[1]; [6],did not reduce
same,"capillary and synovial hyperplasia, histopathology vs vehicle (in words)",[1]; [6],did not reduce
same,"cartilage damage, histopathology vs vehicle (in words)",[1]; [6],did not reduce
same,plasma PGE2 level,PGE2 [2],107.3 ± 62 ng/mL
CCCCc1nc(Cl)c(CO)n1Cc1ccc(-c2ccccc2-c2nn[nH]n2)cc1 [losartan],therapeutic effect on STZ-induced urine protein (in words),[3],protected rats from the STZ effect
Enbrel,arthritic index (AI) in comparison to the CIA control group (in words),[4],significantly decreased
same,plasma PGE2 level,PGE2 [5],187.5 ± 74 ng/mL
